Among the data in US20110150767A1, “ALPHA-SUBSTITUTED AND ALPHA-UNSUBSTITUTED AROMATIC AMINO ACID DERIVATIVES AND COMPOSITIONS THEREOF FOR USE TO TREAT, DIAGNOSE, OR MONITOR A MEDICAL CONDITION” (priority 2009, published 2011) are IC50 values, retold here.

The structures appear in SMILES notation.

The target of assay [1] is T1, human L-type amino acid transporter 2 (LAT2; S2-hLAT2 cells) (Homo sapiens, UniProt Q9UHI5).
T1 construct: expressed in transfected cells; host or cells: S2 cells (S2-hLAT2 / S2-LAT2); mammalian cell line described in Morimoto et al., J Pharmacol Sci 2008, 108, 505-516
T1 sequence (Q9UHI5 1-535): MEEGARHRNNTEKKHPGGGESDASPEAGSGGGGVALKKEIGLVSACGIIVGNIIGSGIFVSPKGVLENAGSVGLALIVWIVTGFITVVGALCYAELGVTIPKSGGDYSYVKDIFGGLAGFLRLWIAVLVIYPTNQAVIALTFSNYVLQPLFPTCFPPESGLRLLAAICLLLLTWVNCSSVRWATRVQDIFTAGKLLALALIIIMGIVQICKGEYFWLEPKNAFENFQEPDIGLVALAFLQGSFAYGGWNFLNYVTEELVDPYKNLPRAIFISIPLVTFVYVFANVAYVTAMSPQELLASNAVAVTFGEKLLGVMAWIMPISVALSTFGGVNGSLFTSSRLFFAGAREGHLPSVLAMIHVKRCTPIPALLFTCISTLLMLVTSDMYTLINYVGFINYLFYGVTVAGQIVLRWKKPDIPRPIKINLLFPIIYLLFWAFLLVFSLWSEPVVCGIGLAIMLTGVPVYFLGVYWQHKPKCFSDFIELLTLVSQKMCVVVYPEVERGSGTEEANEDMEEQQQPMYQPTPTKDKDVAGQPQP
T1 sequence (P08195 1-529 partner): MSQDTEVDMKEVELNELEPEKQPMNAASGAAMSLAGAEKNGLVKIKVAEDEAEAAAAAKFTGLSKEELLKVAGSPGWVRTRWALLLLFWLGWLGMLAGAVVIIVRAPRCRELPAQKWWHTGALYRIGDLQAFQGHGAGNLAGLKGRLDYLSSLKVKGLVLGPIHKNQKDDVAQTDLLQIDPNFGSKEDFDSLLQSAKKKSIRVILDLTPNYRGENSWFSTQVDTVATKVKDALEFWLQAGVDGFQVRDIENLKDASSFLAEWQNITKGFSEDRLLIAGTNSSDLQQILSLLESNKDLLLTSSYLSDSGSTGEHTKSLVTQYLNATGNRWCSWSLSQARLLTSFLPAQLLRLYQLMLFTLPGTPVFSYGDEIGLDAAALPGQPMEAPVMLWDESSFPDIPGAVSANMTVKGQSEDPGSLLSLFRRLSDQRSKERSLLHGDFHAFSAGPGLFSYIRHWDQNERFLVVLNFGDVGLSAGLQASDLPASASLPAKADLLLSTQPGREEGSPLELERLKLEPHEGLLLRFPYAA
Description: Inhibition of L-[14C]leucine uptake in S2-LAT2 cells. Conditions: inhibition of 1.0 μM L-[14C]leucine uptake, 1.0 min, 37° C., NI = no inhibition at 100 μM. Format: cell-based. The method, then: (§1) The establishment and characterization of mammalian cell lines expressing human L-type amino acid transporterss (i.e. S2-hLAT1 and S2-hLAT2) has been previously described (Morimoto et al., Journal of Pharmacological Sciences, 2008, 108, 505-516).
(§2) General test procedures are as follows: All test compounds were dissolved in dimethyl sulfoxide (DMSO) to prepare stock solutions at the concentrations of 0.05, 0.5, 5.0 and 50 mM; next, these stock solutions were used and diluted with uptake solution to make final test concentrations of 0.10, 1.00, 10.0 and 100 μM, respectively. Therefore, all compounds used for uptake experiment were in uptake solution containing 0.2% DMSO; experiments are performed in triplicate for each concentration. For control uptake, only DMSO was added into the uptake solution to a final concentration of 0.2%.
(§3) S2-LAT1 and S2-LAT2 cells were seeded (1.3×10^5 cells/well) into 24-well plates and cultured at 33° C. (5% CO2) for 2-3 days until confluent (90%-100% confluence). Uptake experiments were performed at 37° C. The culture medium was removed and washed 3 times with uptake solution (37° C.; Hank's Na^+ free buffer consisting of 125 mM choline chloride, 4.8 mM KCl, 1.3 mM CaCl2, 1.2 mM MgCl2, 25.0 mM HEPES, and 5.0 mM Tris, pH 7.4, supplemented with D-glucose (5.6 mM). The cells were equilibrated in uptake solution (300 μL; 37° C.) for 12 min. The equilibrated solution was removed and uptake solution containing radio-labeled compound (1.0 μM L-[^14C] Leucine) with or without test compound (300 μL) was added to the cells (1.0 min). The test solution was removed and the cells washed 3 times with ice-cold uptake solution. The cells are then solubilized with 0.1N NaOH (0.5 mL) and transferred to scintillation vials. Liquid scintillation fluid (3.0 mL; aquasol-2) was added, mixed and substrate accumulation was measured by counting radioactivity via liquid scintillation counting (LSC; LSC6100, Aloka, Tokyo). The uptake value and % of inhibition were calculated to afford IC50 values.

Assay [2] has as its target T2, human L-type amino acid transporter 1 (LAT1; S2-hLAT1 cells) (Homo sapiens, UniProt Q01650).
T2 construct: expressed in transfected cells; host or cells: S2 cells (S2-hLAT1 / S2-LAT1); mammalian cell line described in Morimoto et al., J Pharmacol Sci 2008, 108, 505-516
Nature of the assay: Inhibition of L-[14C]leucine uptake in S2-LAT1 cells. Format: cell-based. The following applies: inhibition of 1.0 μM L-[14C]leucine uptake, 1.0 min, 37° C., NI = no inhibition at 100 μM. How it is done: as §1, §2, §3

T2 sequence (Q01650 whole entry, one chain of several): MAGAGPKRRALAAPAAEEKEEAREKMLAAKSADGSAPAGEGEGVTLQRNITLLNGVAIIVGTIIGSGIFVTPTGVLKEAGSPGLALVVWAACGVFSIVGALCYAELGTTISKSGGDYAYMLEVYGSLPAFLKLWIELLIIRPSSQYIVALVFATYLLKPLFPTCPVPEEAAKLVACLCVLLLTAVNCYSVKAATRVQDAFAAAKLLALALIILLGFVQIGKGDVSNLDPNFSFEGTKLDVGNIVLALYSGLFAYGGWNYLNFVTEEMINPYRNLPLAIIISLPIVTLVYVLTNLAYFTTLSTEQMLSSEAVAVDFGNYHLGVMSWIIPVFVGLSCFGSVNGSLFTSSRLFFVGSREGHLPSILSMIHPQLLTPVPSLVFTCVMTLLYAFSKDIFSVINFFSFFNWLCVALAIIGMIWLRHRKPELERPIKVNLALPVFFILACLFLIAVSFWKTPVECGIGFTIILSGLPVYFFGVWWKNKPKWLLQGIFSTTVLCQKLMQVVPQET

Regarding `CC(N)(Cc1cc(Cl)c(OCc2ccc3c(c2)OCO3)c(Cl)c1)C(=O)O` (racemic) [compound 144], the IC50 in assay [1] and in assay [2] was above 100 µM throughout.
For `CC(N)(Cc1cc(Cl)c(OCc2ccc(C(F)(F)F)cc2)c(Cl)c1)C(=O)O` (racemic) [compound 145], the IC50 (as a rule, the concentration needed to halve the response being measured) in assay [1] is above 100 µM.
For the molecule `COc1ccc(COc2c(Cl)cc(CC(C)(N)C(=O)O)cc2Cl)cc1` (racemic) [compound 146], the values for the 50% inhibitory concentration (IC50) in assay [1] and in assay [2] were 16.4 µM and 6.7 µM, respectively.
Consider `COc1cccc(COc2c(Cl)cc(CC(C)(N)C(=O)O)cc2Cl)c1` (racemic) [compound 147], for which the half-inhibitory concentration (IC50) in assay [1] and in assay [2] was above 100 µM in each case.
With `COc1ccccc1COc1c(Cl)cc(CC(C)(N)C(=O)O)cc1Cl` (racemic) [compound 148], the IC50 in assay [1] and in assay [2] was above 100 µM each time.
`COc1cccc(COc2c(Cl)cc(CC(C)(N)C(=O)O)cc2Cl)c1OC` (racemic) [compound 149]: the concentration for half-maximal inhibition (IC50) in assay [1] and in assay [2] was above 100 µM each time.
On to `COc1ccc(COc2c(Cl)cc(CC(C)(N)C(=O)O)cc2Cl)cc1OC` (racemic) [compound 150], for which the IC50 in assay [1] and in assay [2] was above 100 µM in each case.
For the molecule `COc1cc(COc2c(Cl)cc(CC(C)(N)C(=O)O)cc2Cl)cc(OC)c1OC` (racemic) [compound 151], the IC50 in assay [1] and in assay [2] was above 100 µM in each case.
As for `CC(N)(Cc1cc(Cl)c(OCc2ccncc2)c(Cl)c1)C(=O)O` (racemic) [compound 152], the IC50 in assay [1] and in assay [2] was above 100 µM each time.
As to `N[C@@H](Cc1cc(I)c(OCCc2ccc(OC(F)(F)F)cc2)c(I)c1)C(=O)O` [compound 33], the half-maximal inhibitory concentration (IC50) in assay [1] and in assay [2] was above 100 µM in each case.
For the molecule `N[C@@H](Cc1cc(I)c(OCC(=O)c2ccccc2)c(I)c1)C(=O)O` [compound 34], the IC50 in assay [1] was 47.9 µM; in assay [2], 11.9 µM.
The like results for `COC(COc1c(I)cc(C[C@H](N)C(=O)O)cc1I)c1ccccc1` (some centres unmarked) [compound 35] were, in that order, above 100 µM and 8.8 µM.
With `N[C@@H](Cc1cc(I)c(OCCc2ccc([N+](=O)[O-])cc2)c(I)c1)C(=O)O` [compound 36], the figures for the 50% inhibitory concentration (IC50) in assay [1] and in assay [2] were above 100 µM and 28.2 µM, respectively.
In the case of `N[C@@H](Cc1cc(I)c(OCc2ccc([N+](=O)[O-])cc2)c(I)c1)C(=O)O` [compound 37], the IC50 in assay [1] was 8.2 µM; in assay [2], 11.5 µM.
On to `COc1ccc(COc2c(I)cc(C[C@H](N)C(=O)O)cc2I)c(OC)c1` [compound 41], for which the IC50 in assay [1] is above 100 µM; in assay [2], 5 µM.
On to `COc1cc(Cl)ccc1COc1c(I)cc(C[C@H](N)C(=O)O)cc1I` [compound 42], for which the IC50 was above 100 µM in assay [1] and 17.7 µM in assay [2].
The like results for `COc1ccc(COc2c(I)cc(C[C@H](N)C(=O)O)cc2I)c(OC)c1OC` [compound 43] were, in that order, above 100 µM and 23.6 µM.
With `COc1ccc(COc2c(I)cc(C[C@H](N)C(=O)O)cc2I)c(C)c1C` [compound 44], the 50% inhibitory concentration (IC50) in assay [1] was above 100 µM; in assay [2], 7.7 µM.
As to `COc1cc(COc2c(I)cc(C[C@H](N)C(=O)O)cc2I)cc(OC)c1OC` [compound 45], the IC50 in assay [1] is above 100 µM; in assay [2] it was 15 µM.
The corresponding values for `CCOc1ccc(COc2c(I)cc(C[C@H](N)C(=O)O)cc2I)c(OCC)c1` [compound 48] are above 100 µM and 17.2 µM.
Consider `CCOc1ccc(COc2c(I)cc(C[C@H](N)C(=O)O)cc2I)cc1OCC` [compound 49], for which the IC50 is above 100 µM in assay [1] and 5.5 µM in assay [2].
The corresponding values for `N[C@@H](Cc1cc(I)c(OCc2ccc3c(c2)OCO3)c(I)c1)C(=O)O` [compound 50] are above 100 µM and 24.1 µM.
On to `N[C@@H](Cc1cc(I)c(OCc2ccc(Cl)cc2)c(I)c1)C(=O)O` [compound 51], for which the IC50 worked out at 29.5 µM in assay [1] and 10.4 µM in assay [2].
As for `COc1ccc(CCOc2c(Br)cc(C[C@H](N)C(=O)O)cc2Br)cc1` [compound 52], the IC50 in assay [1] was above 100 µM; in assay [2], 6.8 µM.
Turning to `COc1cccc(CCOc2c(Br)cc(C[C@H](N)C(=O)O)cc2Br)c1` [compound 53], the figures for the IC50 in assay [1] and in assay [2] were above 100 µM and 6.3 µM, respectively.
`COc1ccccc1CCOc1c(Br)cc(C[C@H](N)C(=O)O)cc1Br` [compound 54]: the concentration for half-maximal inhibition (IC50) in assay [1] is above 100 µM; in assay [2] it was 5.4 µM.
For `COc1ccccc1COc1c(Br)cc(C[C@H](N)C(=O)O)cc1Br` [compound 55], the figures for the half-maximal inhibitory concentration (IC50) in assay [1] and in assay [2] were above 100 µM and 10.2 µM, respectively.
`COc1cccc(COc2c(Br)cc(C[C@H](N)C(=O)O)cc2Br)c1` [compound 56]: the half-maximal inhibitory concentration (IC50) in assay [1] was above 100 µM; in assay [2], 67.1 µM.
In the case of `COc1ccc(COc2c(Br)cc(C[C@H](N)C(=O)O)cc2Br)cc1` [compound 57], the IC50 in assay [1] turned out to be 86.5 µM; in assay [2], 16.4 µM.
Turning to `N[C@@H](Cc1cc(Br)c(OCCc2ccc(C(F)(F)F)cc2)c(Br)c1)C(=O)O` [compound 58], the half-maximal inhibitory concentration (IC50) in assay [1] is above 100 µM; in assay [2], 43.2 µM.
For the molecule `N[C@@H](Cc1cc(Br)c(OCCc2cccc(C(F)(F)F)c2)c(Br)c1)C(=O)O` [compound 59], the half-inhibitory concentration (IC50) in assay [1] is above 100 µM; in assay [2], 31.8 µM.
For `N[C@@H](Cc1cc(Br)c(OCCc2ccccc2C(F)(F)F)c(Br)c1)C(=O)O` [compound 60], the 50% inhibitory concentration (IC50) in assay [1] and in assay [2] was above 100 µM throughout.
For `N[C@@H](Cc1cc(Br)c(OCc2ccccc2C(F)(F)F)c(Br)c1)C(=O)O` [compound 61], the half-maximal inhibitory concentration (IC50) in assay [1] and in assay [2] was above 100 µM each time.
For `N[C@@H](Cc1cc(Cl)c(OCCc2ccccc2)c(Cl)c1)C(=O)O` [compound 122], the concentration for half-maximal inhibition (IC50) in assay [1] is above 100 µM; in assay [2] it was 50.7 µM.
For `COc1ccc(COc2c(Cl)cc(C[C@H](N)C(=O)O)cc2Cl)cc1OC` [compound 129], the half-inhibitory concentration (IC50) in assay [1] is above 100 µM; in assay [2], 17.8 µM.
The like results for `N[C@@H](Cc1cc(Cl)c(OCc2ccc3c(c2)OCO3)c(Cl)c1)C(=O)O` [compound 130] were, in that order, 27.3 µM and 4.2 µM.
In the case of `COc1ccc(COc2c(Cl)cc(C[C@H](N)C(=O)O)cc2Cl)cc1[N+](=O)[O-]` [compound 131], the half-inhibitory concentration (IC50) in assay [1] turned out to be 126 µM; in assay [2] it was 8.4 µM.
On to `COc1cccc(COc2c(Cl)cc(C[C@H](N)C(=O)O)cc2Cl)c1OC` [compound 132], for which the half-maximal inhibitory concentration (IC50) in assay [1] is above 100 µM; in assay [2], 28.2 µM.
As to `COc1ccc(COc2c(Cl)cc(C[C@H](N)C(=O)O)cc2Cl)c(OC)c1` [compound 133], the half-inhibitory concentration (IC50) is 5.5 µM in assay [1] and 0.8 µM in assay [2].
